Source: patent US4988707A, “Pharmacologically active phenylalkanoyl substituted imidazo (4,5-C) pyridines” (G. D. Searle & Co., priority 1989, dated 1991)

Experiments:
Human Platelet Receptor = Human Platelet Receptor (Homo sapiens, UniProt P25105)
Method: Inhibition of ^3 H-PAF Binding to Human Platelet Membrane Receptors
Receptor Preparation: Ten units of in-dated human packed platelets, each containing 45-65 ml platelet rich-plasma, were purchased from a commercial blood bank. Disposable plasticware was used throughout for receptor preparation. The units were pooled and a 1 ml aliquot was removed for determination of platelet concentration, using a Coulter Counter. The remaining platelet rich plasma was dispensed into 50 ml conical tubes and centrifuged at room temperature for 15 minutes at 3000 RPM (2300×g).Plasma was decanted and the platelets were resuspended in 35 ml of buffer (10 mM Trizma 7.0, 2 mM EDTA (dipotassium salt), and 150 mM KCl) and transferred to fresh tubes, which were centrifuged again as above. The platelets were washed 3 times, avoiding contaminating erythrocytes at the bottom of the pellets. Pellets were consolidated at each step, and by the last wash with EDTA/KCl buffer, most of the erythrocytes were in 1 tube. The pellets were resuspended in buffer containing 10 mM Trizma 7.0 with 10 mM CaCl2. Following centrifugation, the buffer was decanted and the pellets were resuspended in the CaCl2 buffer, avoiding erythrocyte contamination by recovering less than 100% of the platelet pellets. The resuspended platelets were dispensed in 8-10 ml aliquots into Corex tubes and disrupted by three cycles of freezing (dry ice/ethanol) and thawing (24° C.). The tubes were centrifuged at 40,000×g for 20 minutes at 4° C. Supernatants were decanted and each pellet was resuspended in 5-7 ml 10 mM Trizma 7.0. All resuspended pellets were pooled and aliquots of about 1200 μl were dispensed into 1.5 ml microfuge tubes and frozen at -70° C. Protein content was determined by a fluorescamine protein assay.
Assay Methods: Receptor Characterization--Each receptor preparation was evaluated to determine the number of receptor populations, the number of PAF receptor equivalents/mg protein and the dissociation constant (KD) for PAF binding. This required 2-3 experiments in which the protein concentration was held constant and the ^3 H-PAF ligand concentration was varied from approximately 0.10-2.5 nM and the data was analyzed by Scatchard methodology. Total incubation volume was 250 μl for these procedures and incubations were conducted at 24° C. for 30 minutes. For further experimentation, total incubation volumes are 500 μl. Protein and ligand concentrations were adjusted to give 0.075 nM receptor equivalents in the presence of 0.75 nM ^3 H-PAF. Each receptor preparation was then used to determine the dose--response displacement relationship of unlabeled PAF and the PAF antagonist, triazolam.
Assay Methods: Routine Assay of Compounds--The compounds were weighed precisely and solubilized in quantities of DMSO such that a 5 μl aliquot in the incubate would deliver the desired compound concentration. Compounds tested for the first time in this assay were evaluated at a concentration of 50 μM in the incubation medium. […] Triazolam was always included in each screening assay as a compound inhibition control. […] Nonspecific binding control solution was made by drying to completion about 26.2 μl unlabeled PAF under a stream of argon. PAF was resolubilized in 1000 μl DMSO. When delivered in a 5 μl aliquot, the final concentration of 1 μM PAF in the incubate exceeded by 1000-fold the concentration of ^3 H-PAF.
All buffers containing proteins were made at room temperature on the day of assay. […]

Rabbit Platelet [1] = test: PAF-induced platelet aggregation; type: cell-based; details: Oryctolagus cuniculus, washed rabbit platelets, 60 sec preincubation, PAF 0.2 nM to 0.2 μM, aggregation at 60 sec
Method: (§1) PAF-induced platelet aggregation and secretion: Washed, [^3 H]serotonin-labeled rabbit platelets were prepared as previously described in COX, C. P , J. LINDEN and S. I. SAID: VIP elevates platelet cyclic AMP (cAMP) levels and inhibits in vitro platelet activation induced by platelet activating factor (PAF). Peptides 5:25-28, 1984, and maintained in an atmosphere of 5% CO2 at 37° C. until used in the bioassay. Aliquots of platelets (2.5×10^8 /ml) were incubated with either an antagonist of PAF or the appropriate vehicle for 60 sec prior to the addition of PAF (0.2 nM to 0.2 μM). Aggregation was continuously monitored on a strip-chart recorder and recorded as the height of the tracing at 60 sec after the addition of PAF. Secretion of [^3 H] serotonin was measured in a sample of the platelet suspension removed at 60 sec after the addition of PAF. The percent inhibition of aggregation and secretion was calculated by comparing antagonist-treated platelets with the appropriate vehicle-treated control platelets. Each combination of antagonist and PAF was repeated using different platelet preparations. IC50 values were determined by inspection of the dose-response curves.

Rabbit Platelet [2] = test: PAF-induced platelet secretion ([3H]serotonin); type: cell-based; details: Oryctolagus cuniculus, washed [3H]serotonin-labeled rabbit platelets, 60 sec preincubation, PAF 0.2 nM to 0.2 μM, secretion at 60 sec
Method: as §1

Sequence of Human Platelet Receptor (P25105 whole entry): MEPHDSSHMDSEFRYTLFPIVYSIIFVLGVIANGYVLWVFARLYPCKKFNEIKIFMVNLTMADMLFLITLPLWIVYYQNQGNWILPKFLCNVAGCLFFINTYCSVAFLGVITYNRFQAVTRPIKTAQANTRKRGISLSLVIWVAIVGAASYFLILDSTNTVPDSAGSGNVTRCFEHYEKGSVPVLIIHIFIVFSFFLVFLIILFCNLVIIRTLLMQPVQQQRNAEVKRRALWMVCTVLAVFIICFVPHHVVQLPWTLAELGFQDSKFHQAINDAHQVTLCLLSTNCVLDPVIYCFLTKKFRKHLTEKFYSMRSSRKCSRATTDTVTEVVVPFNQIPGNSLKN

SMILES | IC50 (Human Platelet Receptor) [nM] | IC50 (Rabbit Platelet [1]) [nM] | IC50 (Rabbit Platelet [2]) [nM] | inhibition at 50 µM (Human Platelet Receptor; read-out: inhibition of 3H-PAF binding) [%]
O=C(CC1CCCCC1)c1ccc(Cn2ccc3ncnc-3c2)cc1 [2 Cyclohexyl-1-[4-(5H-Imidazo[4,5-c]Pyridin 5-yl-Methyl)Phenyl]Ethanone] | 4.44 | 948 | 131 | –
C=CCC(C(=O)c1ccc(Cn2ccc3ncnc-3c2)cc1)C1CCCCC1 (stereo not shown) [2-Cyclohexyl-1-[4-(5H-Imidazo[4,5-c]Pyridin-5-yl-Methyl)Phenyl]-4-Penten-1-One] | 2.22 | 633 | 105 | –
O=C(c1ccc(Cn2ccc3ncnc-3c2)cc1)C(C1CCCCC1)C1CCCC1 (stereo not shown) [2-Cyclohexyl-2-Cyclopentyl-1-[4-(5H Imidazol[4,5-c]Pyridin-5-yl-Methyl)Phenyl]Ethanone] | 1.46 | 279 | 89 | –
O=C(CC1CCCC1)c1ccc(Cn2ccc3ncnc-3c2)cc1 [2-Cyclopentyl-1-[4-(5H-Imidazo[4,5-c]Pyridin-5-yl-Methyl)Phenyl]Ethanone] | 8.41 | 2590 | 379 | –
Cc1nnc2n1-c1ccc(Cl)cc1C(c1ccccc1Cl)=NC2 [triazolam, reference compound] | – | – | – | ~50
